Reference: PMC9828099, “Aromatic disulfides as potential inhibitors against interaction between deaminase APOBEC3G and HIV infectivity factor” (Acta Biochimica et Biophysica Sinica, 2022)

Tests used:
[1] = test system: interaction between A3G and Vif; design: method as in PMID 25724652; conditions: read-out: IC50, block of interaction between A3G and Vif; cited from earlier work
Vif = conditions: fluorescent intensity of 293T cells; read-out: IC50, inhibition of Vif activity; cited from earlier work
HIV-1 = conditions: MT4 and MAGI cells; cited from earlier work
rVif = target: T1, rVif (Human immunodeficiency virus type 1 group M subtype B, UniProt P12504); type: binding, HIV-1; conditions: SPR 1st round screening, small molecules at 500 μM
T1 construct: The cDNAs of full-length Vif (residues 1–192) was sub-cloned into the vector pET28a; made in house
T1 sequence (P12504 whole entry, the tested form may be a part): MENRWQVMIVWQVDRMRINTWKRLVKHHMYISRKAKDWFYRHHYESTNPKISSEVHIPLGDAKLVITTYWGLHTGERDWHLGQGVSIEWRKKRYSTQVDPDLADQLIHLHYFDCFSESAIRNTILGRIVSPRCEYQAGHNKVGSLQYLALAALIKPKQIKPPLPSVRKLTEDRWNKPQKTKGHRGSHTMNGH
Method: (§1) Small molecules in the concentration of 500 μM were injected at 30 μL/min. The contact time is 100 s and dissociation time is 120 s. The chip was regenerated by glycine (pH 1.5) at a flow rate of 30 μL/min (30 s contact time). Then small molecules with high RU were selected to perform the 2 ^nd round screening. […] The data analyses were performed by BIAcore Evaluation.

A3G-sNTD = target: T2, A3G-sNTD (Homo sapiens, UniProt Q9HC16); assay: SPR binding of small molecules to A3G-sNTD; conditions: read-out: KD, binding affinity to A3G-sNTD
T2 sequence (Q9HC16 1-196): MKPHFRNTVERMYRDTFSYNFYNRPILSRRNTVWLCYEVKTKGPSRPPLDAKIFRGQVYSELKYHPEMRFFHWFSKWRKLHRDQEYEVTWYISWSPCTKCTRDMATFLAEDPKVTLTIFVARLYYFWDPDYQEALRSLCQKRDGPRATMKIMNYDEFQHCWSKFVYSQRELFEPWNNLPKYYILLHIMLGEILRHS
Method: as §1

[2] = target: full-length APOBEC3G (A3G-FL) (UniProt Q9HC16); assay: SPR

C/C(=C/C(=O)c1cccnc1)Nc1ccc(O)cc1 [N.41]
IC50 [1]: 2.18 µM

COc1ccccc1NC(=O)c1ccccc1Sc1ccc([N+](=O)[O-])cc1 [RN-18]
IC50 (Vif): 4.5 µM

O=C(O)Cn1c2c(c3c1=C(c1ccc(O)c(O)c1)C(=O)c1cc(O)c(O)cc1-3)-c1cc(O)c(O)cc1C(=O)C=2c1ccc(O)c(O)c1 [Baculiferin L]
IC50, HIV-1 replication (HIV-1): 0.5 to 7 µg/mL

O=C(O)Cn1c2c(c3c1=C(c1ccc(O)c(O)c1)C(=O)c1cc(O)c(OS(=O)(=O)O)cc1-3)-c1cc(O)c(O)cc1C(=O)C=2c1ccc(O)c(O)c1 [Baculiferin M]
IC50, HIV-1 replication (HIV-1): 0.5 to 7 µg/mL

CCCCn1c(SCc2c(C)noc2C)nc2cc(S(N)(=O)=O)ccc21 [MM-2]
relative response value of binding to rVif (rVif): 130.4 RU | Kd (A3G-sNTD): 19.9 ± 11 µM

Vif-CBFβ-ELOB-ELOC (VCBC) complex (from UniProt P12504;Q13951;Q15370;Q15369)
Kd [2]: 0.00071 µM
